Laboratory results from patent US11261177B2, “Benzoxazinone derivatives useful as herbicides” (REDAG CROP PROTECTION LTD, priority 2017, dated 2022).

Assays:
Type in all cases: in vivo
[1] = test system: Lolium perenne; assay: Pre-emergence herbicidal assay, 96 cell trays, glasshouse; conditions: 168 h, Lollium, assessed 7 days after treatment, read-out: % control of plant growth; for pest or weed control at 200 g/ha: 0.2 kg/ha; for pest or weed control at 1000 g/ha: 1 kg/ha; for pest or weed control at 5000 g/ha: 5 kg/ha
Procedure: (§1) The compounds were screened at three concentrations (0.2, 1 and 5 kg/ha) against 2 weed species (Stellaria media—Chickweed and Lolium perenne). The seeds were sown in the cells of 96 cell trays (4-6 seeds per cell). For the pre-emergence assay, 75 μL of a suspension of the test compound, at the above doses, was added on top of the soil 1 day after sowing. For the post-emergence assay, the seedlings were sprayed with 200 μL of a suspension of the test compound two weeks after sowing. The formulation used is 25% acetone and 75% water/0.01% Tween 20. Each treatment was replicated three times. The plants were kept in a glasshouse (uncontrolled conditions) and assessed 7 days after treatment. A small number of compounds were tested in a first trial. A larger number of compounds were tested in a second trial. The assessment was based on the % control of plant growth in each cell.

[2] = test system: Stellaria media—Chickweed; assay: as above; conditions: 168 h, assessed 7 days after treatment, read-out: % control of plant growth; for pest or weed control at 200 g/ha: 0.2 kg/ha; for pest or weed control at 1000 g/ha: 1 kg/ha; for pest or weed control at 5000 g/ha: 5 kg/ha
Procedure: as §1

[3] = test system: Lolium perenne; assay: Post-emergence herbicidal assay, 96 cell trays, glasshouse; conditions: 168 h, Lollium, assessed 7 days after treatment, read-out: % control of plant growth; for pest or weed control at 200 g/ha: 0.2 kg/ha; for pest or weed control at 1000 g/ha: 1 kg/ha; for pest or weed control at 5000 g/ha: 5 kg/ha
Procedure: as §1

[4] = test system: Stellaria media—Chickweed; assay: as above; conditions: 168 h, assessed 7 days after treatment, read-out: % control of plant growth; for pest or weed control at 200 g/ha: 0.2 kg/ha; for pest or weed control at 1000 g/ha: 1 kg/ha; for pest or weed control at 5000 g/ha: 5 kg/ha
Procedure: as §1

[5] = test system: 2 weed species (Stellaria media—Chickweed and Lolium perenne); assay: Herbicidal activity screen, summary in words over both weed species; conditions: pre- and post-emergence, 0.2, 1 and 5 kg/ha
Procedure: as §1

| SMILES | pest or weed control at 200 g/ha ([1]; second trial (Table 2)) | pest or weed control at 1000 g/ha ([1]; second trial (Table 2)) | pest or weed control at 5000 g/ha ([1]; second trial (Table 2)) | pest or weed control at 200 g/ha ([2]; second trial (Table 2)) | pest or weed control at 1000 g/ha ([2]; second trial (Table 2)) | pest or weed control at 5000 g/ha ([2]; second trial (Table 2)) | pest or weed control at 200 g/ha ([3]; second trial (Table 2)) | pest or weed control at 1000 g/ha ([3]; second trial (Table 2)) | pest or weed control at 5000 g/ha ([3]; second trial (Table 2)) | pest or weed control at 200 g/ha ([4]; second trial (Table 2)) | pest or weed control at 1000 g/ha ([4]; second trial (Table 2)) | pest or weed control at 5000 g/ha ([4]; second trial (Table 2)) | herbicidal activity [5] | also measured |
| --- | --- | --- | --- | --- | --- | --- | --- | --- | --- | --- | --- | --- | --- | --- |
| C#CCN1C(=O)C2(CC2)Oc2cc(F)c(-n3ncc(C(F)(F)F)c(C)c3=O)cc21 [Example 4, 7-Fluoro-6-(5-methyl-6-oxo-4-(trifluoromethyl)pyridazin-1(6H)-yl)-4-(prop-2-yn-1-yl)spiro[benzo[b][1,4]oxazine-2,1′-cyclopropan]-3(4H)-one] | 80 to 100% | 80 to 100% | 80 to 100% | 80 to 100% | 80 to 100% | 80 to 100% | 80 to 100% | 80 to 100% | 80 to 100% | 80 to 100% | 80 to 100% | 80 to 100% | excellent herbicidal activity against all tested species | pest or weed control at 200 g/ha ([1]; first trial (Table 1)): 80 to 100%; pest or weed control at 1000 g/ha ([1]; first trial (Table 1)): 80 to 100%; pest or weed control at 5000 g/ha ([1]; first trial (Table 1)): 80 to 100%; pest or weed control at 200 g/ha ([2]; first trial (Table 1)): 80 to 100%; pest or weed control at 1000 g/ha ([2]; first trial (Table 1)): 80 to 100%; pest or weed control at 5000 g/ha ([2]; first trial (Table 1)): 80 to 100%; pest or weed control at 200 g/ha ([3]; first trial (Table 1)): 80 to 100%; pest or weed control at 1000 g/ha ([3]; first trial (Table 1)): 80 to 100%; pest or weed control at 5000 g/ha ([3]; first trial (Table 1)): 80 to 100%; pest or weed control at 200 g/ha ([4]; first trial (Table 1)): 20 to 80%; pest or weed control at 1000 g/ha ([4]; first trial (Table 1)): 20 to 80%; pest or weed control at 5000 g/ha ([4]; first trial (Table 1)): 20 to 80% |
| C#CCN1C(=O)C2(CC2)Oc2cc(F)c(N3C(=O)c4ccc(C)cc4C3=O)cc21 [Example 8] | 20 to 80% | 80 to 100% | 80 to 100% | 80 to 100% | 80 to 100% | 80 to 100% | 20 to 80% | 80 to 100% | 80 to 100% | 80 to 100% | 80 to 100% | 80 to 100% | excellent herbicidal activity against all tested species | – |
| COC(=O)C(C)N1C(=O)C2(CC2)Oc2cc(F)c(N3C(=O)C4=C(CCCC4)C3=O)cc21 (stereo not shown) [Example 15] | 20 to 80% | 80 to 100% | 80 to 100% | 80 to 100% | 80 to 100% | 80 to 100% | 20 to 80% | 80 to 100% | 80 to 100% | 80 to 100% | 80 to 100% | 80 to 100% | excellent herbicidal activity against all tested species | – |
| CCOC(=O)C(C)N1C(=O)C2(CC2)Oc2cc(F)c(N3C(=O)C4=C(CCCC4)C3=O)cc21 (stereo not shown) [Example 18] | 80 to 100% | 80 to 100% | 80 to 100% | 80 to 100% | 80 to 100% | 80 to 100% | 20 to 80% | 80 to 100% | 80 to 100% | 80 to 100% | 80 to 100% | 80 to 100% | excellent herbicidal activity against all tested species | – |
| CCOC(=O)C(C)N1C(=O)C2(CC2)Oc2cc(F)c(N3C(=O)c4ccc(F)cc4C3=O)cc21 (stereo not shown) [Example 19] | 20 to 80% | 80 to 100% | 80 to 100% | 80 to 100% | 80 to 100% | 80 to 100% | 20 to 80% | 80 to 100% | 80 to 100% | 80 to 100% | 80 to 100% | 80 to 100% | excellent herbicidal activity against all tested species | – |
| O=C1c2ccc(F)cc2C(=O)N1c1cc2c(cc1F)OC1(CC1)C(=O)N2CC1CC1 [Example 26] | 80 to 100% | 80 to 100% | 80 to 100% | 80 to 100% | 80 to 100% | 80 to 100% | 80 to 100% | 80 to 100% | 80 to 100% | 80 to 100% | 80 to 100% | 80 to 100% | excellent herbicidal activity against all tested species | – |
| COCCN1C(=O)C2(CC2)Oc2cc(F)c(N3C(=O)c4ccc(F)cc4C3=O)cc21 [Example 27] | 20 to 80% | 80 to 100% | 80 to 100% | 80 to 100% | 80 to 100% | 80 to 100% | 20 to 80% | 80 to 100% | 80 to 100% | 80 to 100% | 80 to 100% | 80 to 100% | excellent herbicidal activity against all tested species | – |
| C#CCN1C(=O)C2(CCC2)Oc2cc(F)c(-n3c(=O)cc(C(F)(F)F)[nH]c3=O)cc21 [Example 33, 3-(7-Fluoro-3-oxo-4-(prop-2-yn-1-yl)-3,4-dihydrospiro[benzo[b][1,4]oxazine-2,1′-cyclobutan]-6-yl)-6-(trifluoromethyl)pyrimidine-2,4(1H,3H)-dione] | < 20% | < 20% | < 20% | < 20% | 20 to 80% | 20 to 80% | < 20% | < 20% | < 20% | < 20% | < 20% | 20 to 80% | – | – |
| CC(C(=O)O)N1C(=O)C2(CC2)Oc2cc(F)c(N3C(=O)c4ccc(F)cc4C3=O)cc21 (stereo not shown) [Example 35] | < 20% | 20 to 80% | 20 to 80% | < 20% | 20 to 80% | 20 to 80% | < 20% | 20 to 80% | 20 to 80% | 80 to 100% | 80 to 100% | 80 to 100% | – | – |
| O=C1c2ccc(F)cc2C(=O)N1c1cc2c(cc1F)OC1(CC1)C(=O)N2CC1CO1 (stereo not shown) [Example 36, 5-Fluoro-2-(7-fluoro-4-(oxiran-2-ylmethyl)-3-oxo-3,4-dihydrospiro[benzo[b][1,4]oxazine-2,1′-cyclopropan]-6-yl)isoindoline-1,3-dione] | < 20% | 20 to 80% | 20 to 80% | < 20% | 20 to 80% | 80 to 100% | < 20% | 20 to 80% | 20 to 80% | 80 to 100% | 80 to 100% | 80 to 100% | – | – |
| C#CCN1C(=O)C2(CC2)Oc2cc(F)c(-n3c(=O)cc(C(F)(F)F)n(CC#C)c3=O)cc21 [Example 41] | 80 to 100% | 80 to 100% | 80 to 100% | 80 to 100% | 80 to 100% | 80 to 100% | < 20% | 20 to 80% | 80 to 100% | 80 to 100% | 80 to 100% | 80 to 100% | – | – |
| C#CCN1C(=O)C2(CC2)Oc2cc(F)c(-n3c(=O)cc(C(F)(F)F)n(CC(=O)OC)c3=O)cc21 [Example 42] | < 20% | 20 to 80% | 20 to 80% | 20 to 80% | 80 to 100% | 80 to 100% | 20 to 80% | 20 to 80% | 80 to 100% | 80 to 100% | 80 to 100% | 80 to 100% | – | – |
